In patent US4578400A, “Therapeutic composition and method for treatment of cardiovascular diseases” (priority 1982, dated 1986):

How the values were obtained:
[1] = test system: chloroform-induced arrhythmia (ventricular fibrillation); experiment: Effect on chloroform-induced arrhythmia; assay type: in vivo, male ddy mice; details: 10 mg/kg, intraperitoneally 5 minutes before chloroform; control 100
Excerpt: When they stopped breathing, they were thoracotomized to examine the occurrence of ventricular fribrillation. The results are noted in Table 2 as percent occurrence of ventricular fibrillation.

[2] = test system: ouabain induced arrhythmia; experiment: Effect on ouabain induced arrhythmia; assay type: in vivo, male hartley guinea pigs; details: i.v., 10 mg/kg, control = 100
Excerpt: Effect on ouabain induced arrhythmia
The procedure described in Matsubara et al. (Folia Pharmacologica Japonica, 72, 557-571, 1976) was followed.
Male hartley guinea pigs were divided into groups of 8 animals and anesthetized with intraperitoneal urethane. Three groups were orally administered 5--HDA--Na, 5--HDAE and 5--HDA--DHP dissolved in distilled water. Another group was intravenously injected with 5--HDA--Na dissolved in physiological saline. One group was orally administered δ-DL emulsified in 5% aqueous arabic gum solution. One group was injected intravenously with lidocaine dissolved in physiological saline. For the respective routes of administration, control groups were administered the solvents used in administration of the test compounds. Thirty minutes after the oral administration and one minute after the intravenous injection, ouabain was infused into the jugular vein at a rate of 5 μg/kg/min until extrasystole, ventricular fibrillation and cardiac arrest appeared on a standard limb lead II of ECG. The results are shown in Table 3, with the time necessary for the respective symptoms to occur in the control groups taken as 100.

[3] = test system: ventricular fibrillation after coronary artery ligation; experiment: Antiarrhythmic effects on myocardial infarction (coronary ligation); assay type: in vivo, dogs; details: before ligation = 100, control 41
Excerpt: Antiarrhythmic effects on myocardial infarction
The method described by Shinohara (Jap. Circul. J., 32, 1269-1281, 1968) was used. Dogs were divided into groups of 5 animals, anesthetized with intravenous pentobarbital and were thoracotomized under artificial respiration, and a platinum bipolar electrode was inserted on the wall of the right atrium. Then the sinus node was crushed and the animals were subjected to pacing (2.5 Hz, 3 msec, 3.5-8 V) with an electronic stimulator. The left anterior descending coronary artery was doubly ligated at a site 2 cm away from its origin (A. S. Harris, Circulation, 1, 1318, 1950). Then 5--HDA--Na and lidocaine were injected into the femoral vein of the respective dogs. Using an electrode inserted in an ischemic zone in the left ventricle, the animals were given 15 to 20 successive electrical shocks before the ligation and 30 minutes after the ligation and administration. The threshold level necessary for inducing ventricular fibrillation was determined for each group of animals and shown in Table 4, with the values before the ligation taken as 100.

[4] = test system: chloroform-induced arrhythmia (ventricular fibrillation); details: stated without own data; cited from earlier work

CCN(CC)CC(=O)Nc1c(C)cccc1C [Lidocaine, reference compound]
Percent occurrence of ventricular fibrillation [1]: 40
relative time for cardiac arrest to occur [2]: 118
relative time for extrasystole to occur [2]: 133
relative time for ventricular fibrillation to occur ([2]; *P < 0.05): 129
Threshold level for inducing ventricular fibrillation, 30 min after ligation ([3]; 0.3 mg/kg i.v.): 68
Threshold level for inducing ventricular fibrillation, 30 min after ligation ([3]; 1.0 mg/kg i.v., *P < 0.05): 84
effectiveness by oral administration (in words) [4]: not effective by oral administration
